# Legend:
# [1] = test system: E. coli ATCC25922; test: MIC assay of crude extracts, relative activity vs darobactin A; type: cell-based, Escherichia coli; details: crude extract, relative to darobactin A, amount from LC-MS AUC
# Description: (§1) Crude extracts of darobactin derivatives obtained by the heterologous expression and separation protocol described above were tested for their activity against exemplified Gram-negative bacteria with a minimum inhibitory concentration (MIC) assay. The presence of darobactin derivatives in the crude extracts was verified by checking the expected masses via LC-MS.
# (§2) For the MIC assay, 10 μl of crude extract of each test sample, diluted in 50% methanol/H2O, was added each into a well of the first row of a 96 well plate. […] Then, 75 μl of cation-adjusted Mueller-Hinton broth medium was added to each well and the samples contained in the first row were mixed with the 75 μl medium/extract mixture. Starting from the […] mixtures in the first row, serial dilutions of the respective mixtures were prepared in corresponding subjacent rows of the 96 well plate. Bacterial suspensions of each strain to be tested were diluted 1:100 in cation-adjusted Mueller-Hinton broth to obtain a final inoculum of approximately 10^6 CFU/mL. 75 μl of each bacterial suspension to be tested was added to the respective crude extract samples in the wells of the 96 well plate and the plates were incubated at either 30° C. or 37° C. for at least 24 h under static conditions. Plates were then checked visually and MIC was determined as lowest concentration where no visible growth was observed. In order to quantify the activity of the obtained darobactin derivatives, their relative activity in relation to the activity of darobactin A was determined. The amount of darobactin derivative present in the extract test sample was calculated based on the area under the curve (AUC) of the mass peak as automatically calculated by software DataAnalysis 4.2 and extracted from the LC-MS measurements of each of the crude extract samples. Using the AUC of the mass peak of darobactin A (DA) as calibration standard, i.e. ratio between AUC of darobactin derivative and darobactin A was correlated to amount of compound present in sample. The results of activities of tested darobactin derivatives against exemplified Gram-negative bacteria as compared to the activity of darobactin A are summarized in Table 5 below.
# [2] = test system: Klebsiella pneumoniae DSM-30104; test: as above; type: cell-based; details: crude extract, relative to darobactin A, amount from LC-MS AUC
# Description: as §1, §2
# [3] = test system: Pseudomonas aeruginosa PA01; test: as above; type: cell-based; details: crude extract, relative to darobactin A, amount from LC-MS AUC
# Description: as §1, §2
# [4] = test system: Acinetobacter baumannii DSM-30008; test: as above; type: cell-based; details: crude extract, relative to darobactin A, amount from LC-MS AUC
# Description: as §1, §2
# [5] = test system: A. baumannii DSM-30008; test: Microbroth dilution of crude extracts, concentration factor at full growth inhibition; type: cell-based, Acinetobacter baumannii; details: A. baumannii DMS-30008
# Description: (§3) Crude extracts containing the respective darobactin derivatives obtained by the heterologous expression and separation protocol described above were tested for their activity against exemplified Gram-negative bacteria in standard microbroth dilution assays. The presence of darobactin derivatives in the crude extracts was verified by checking the expected masses via LC-HRMS.
# (§4) All microorganisms were handled according to standard procedures as recommended by the depositor. Strains were obtained from the German Collection of Cell Cultures and Microorganisms (Klebsiella pneumoniae DSM-30104, Acinetobacter baumannii DSM-30007 and A. baumannii DSM-30008), the American Type Culture Collection (Escherichia coli ATCC-25922), or were part of our internal strain collection (Pseudomonas aeruginosa PAO1, PA14 and PA14ΔmexAB).
# (§5) For the MIC assay, 10 μl of crude extract of each test sample, diluted in 50% methanol/H2O, was added each into a well of the first row of a 96 well plate. […] Then, 75 μl of cation-adjusted Mueller-Hinton broth medium was added to each well and the samples contained in the first row were mixed with the 75 μl medium/extract mixture. Starting from the 150 μl mixtures in the first row, serial dilutions of the respective mixtures were prepared in corresponding subjacent rows of the 96 well plate. […]
# [6] = test system: E. coli ATCC25922; test: as above; type: cell-based, Escherichia coli
# Description: as §3, §4, §5
# [7] = test system: P. aeruginosa PAO1; test: as above; type: cell-based, Pseudomonas aeruginosa
# Description: as §3, §4, §5
# [8] = test system: K. pneumoniae DSM-30104; test: as above; type: cell-based, Klebsiella pneumoniae
# Description: as §3, §4, §5
# [9] = test system: A. baumannii 070 (NDM-1); test: MIC against clinical isolates of A. baumannii; type: cell-based, Acinetobacter baumannii; details: clinical isolate A. baumannii 070 (NDM-1)
# [10] = test system: A. baumannii 047 (OXA-235); test: MIC against clinical isolates of A. baumannii; type: cell-based, Acinetobacter baumannii; details: clinical isolate A. baumannii 047 (OXA-235)
# [11] = test system: A. baumannii 054 (OXA-51-ISAba1); test: MIC against clinical isolates of A. baumannii; type: cell-based, Acinetobacter baumannii; details: clinical isolate A. baumannii 054 (OXA-51-ISAba1)
# [12] = test system: A. baumannii 045 (OXA-58); test: MIC against clinical isolates of A. baumannii; type: cell-based, Acinetobacter baumannii; details: clinical isolate A. baumannii 045 (OXA-58)
# [13] = test system: A. baumannii 038 (OXA-23); test: MIC against clinical isolates of A. baumannii; type: cell-based, Acinetobacter baumannii; details: clinical isolate A. baumannii 038 (OXA-23)
# [14] = test system: A. baumannii 046 (OXA-40); test: MIC against clinical isolates of A. baumannii; type: cell-based, Acinetobacter baumannii; details: clinical isolate A. baumannii 046 (OXA-40)
compound,measurement,setting,value
C[C@H](NC(=O)[C@H]1NC(=O)[C@H](CO)NC(=O)[C@H]2NC(=O)[C@H](CC(N)=O)NC(=O)[C@@H](N)Cc3c[nH]c4c(cccc34)O[C@@H]2c2c[nH]c3cc(ccc23)[C@@H]1CCCN)C(=O)N[C@@H](Cc1ccccc1)C(=O)O [Darobactin 16],Relative activity,[1],+
same,Relative activity,[2],+
same,Relative activity,[3],+
same,Relative activity,[4],+
NCCC[C@H]1c2ccc3c(c[nH]c3c2)[C@H]2Oc3cccc4c(c[nH]c34)C[C@H](N)C(=O)N[C@@H](CC(N)=O)C(=O)N[C@@H]2C(=O)N[C@@H](CO)C(=O)N[C@@H]1C(=O)N[C@@H](CO)C(=O)N[C@@H](Cc1ccc(O)cc1)C(=O)O [Darobactin 10],Relative activity,[1],0
same,Relative activity,[2],0
same,Relative activity,[3],+
same,Relative activity,[4],0
NCCC[C@H]1c2ccc3c(c[nH]c3c2)[C@H]2Oc3cccc4c(c[nH]c34)C[C@H](N)C(=O)N[C@@H](CCC(N)=O)C(=O)N[C@@H]2C(=O)N[C@@H](CO)C(=O)N[C@@H]1C(=O)N[C@@H](CO)C(=O)N[C@@H](Cc1ccccc1)C(=O)O [Darobactin 11],Relative activity,[1],+++++
same,Relative activity,[2],++++
same,Relative activity,[3],+++++
same,Relative activity,[4],+++++
C[C@@H]1NC(=O)[C@H]2NC(=O)[C@H](CC(N)=O)NC(=O)[C@@H](N)Cc3c[nH]c4c(cccc34)O[C@@H]2c2c[nH]c3cc(ccc23)[C@H](CCCN)[C@@H](C(=O)N[C@@H](CO)C(=O)N[C@@H](Cc2c[nH]c3ccccc23)C(=O)O)NC1=O [Darobactin 30],Concentration factor of crude extract at which full growth inhibition is observed,[5],0.83x
same,Concentration factor of crude extract at which full growth inhibition is observed,[6],0.83x
same,Concentration factor of crude extract at which full growth inhibition is observed,[7],0.11x
same,Concentration factor of crude extract at which full growth inhibition is observed,[8],1.67x
CCCCCCC1OC(=O)CNC(=O)C(C(C)O)NC(=O)C(CO)NC(=O)C(C(C)CC)NC(=O)C(CC(C)C)N(C)C(=O)C1C (stereo not shown) [Globomycin],MIC,[9],16 µg/mL
same,MIC,[10],64 µg/mL
same,MIC,[11],>64 µg/mL
same,MIC,[12],64 µg/mL
same,MIC,[13],32 µg/mL
same,MIC,[14],32 µg/mL
C[C@@H]1NC(=O)[C@H]2NC(=O)[C@H](CC(N)=O)NC(=O)[C@@H](N)Cc3c[nH]c4c(cccc34)O[C@@H]2c2c[nH]c3cc(ccc23)[C@H](CCCN)[C@@H](C(=O)N[C@@H](CO)C(=O)N[C@@H](Cc2ccccc2)C(=O)O)NC1=O [Darobactin 14],Relative activity,[1],+++
same,Relative activity,[2],+++
same,Relative activity,[3],++
same,Relative activity,[4],++
N=C(N)NCC[C@H]1c2ccc3c(c[nH]c3c2)[C@H]2Oc3cccc4c(c[nH]c34)C[C@H](N)C(=O)N[C@@H](CC(N)=O)C(=O)N[C@@H]2C(=O)N[C@@H](CO)C(=O)N[C@@H]1C(=O)N[C@@H](CO)C(=O)N[C@@H](Cc1ccccc1)C(=O)O [Darobactin D],Relative activity,[1],++++
same,Relative activity,[2],0
same,Relative activity,[3],++++
same,Relative activity,[4],++++
C[C@@H](O)[C@@H]1NC(=O)[C@H]2NC(=O)[C@H](CC(N)=O)NC(=O)[C@@H](N)Cc3c[nH]c4c(cccc34)O[C@@H]2c2c[nH]c3cc(ccc23)C(CCNC(=N)N)[C@@H](C(=O)N[C@@H](CCCNC(=N)N)C(=O)N[C@@H](Cc2c[nH]c3ccccc23)C(=O)O)NC1=O (stereo partly shown) [Darobactin 39],Concentration factor of crude extract at which full growth inhibition is observed,[5],0.05x
same,Concentration factor of crude extract at which full growth inhibition is observed,[6],0.42x
same,Concentration factor of crude extract at which full growth inhibition is observed,[7],0.11x
same,Concentration factor of crude extract at which full growth inhibition is observed,[8],0.42x
